The results in this text go back to ChEMBL document CHEMBL5104163, “Modulation of key antioxidant enzymes and cell cycle arrest as a possible antifungal mode of action of cinnamaldehyde based azole derivative” (2022).

Converted amounts (≈) assume the structure as drawn. The source made the active and inactive calls. The calls are words filed in the database; no cut-off is given here.

Assay [1] concerns [Candida] auris. The experiment in a line: Antifungal activity against Candida auris MRL6057 assessed as dead cells at 1.96 ug/ml. It counts as functional, Candidozyma auris. Conditions: dose 1.96 µg/ml.
In assay [2] the test system is [Candida] auris. The experiment in a line: Induction of cell cycle arrest in Candida auris MRL6057 cells assessed as cell population at G0/G1 phase at MIC measured by Muse cell analyzer. It is filed as functional, Candidozyma auris.
In assay [3] the test system is [Candida] auris. The assay can be described thus: Induction of cell cycle arrest in Candida auris MRL6057 cells assessed as cell population at S phase at MIC measured by Muse cell analyzer. It is filed as functional, Candidozyma auris.
The test system of assay [4] is [Candida] auris. The experiment in a line: Induction of oxidative stress in Candida auris MRL6057 incubated for 2 hrs and assessed as downregulation of GST1 mRNA expression measured by RT-qPCR analysis. The note with it: Candidozyma auris. It is filed as functional, organism-based. For orientation: In qPCR the cycle at which signal appears reflects the starting amount.

Assay [5] has as its system [Candida] auris. The assay can be described thus: Induction of oxidative stress in Candida auris MRL6057 incubated for 2 hrs assessed as increase in GPx activity. It is filed as functional, organism-based. The note with it: Candidozyma auris.
Assay [6] concerns [Candida] auris. The assay can be described thus: Induction of oxidative stress in Candida auris MRL6057 incubated for 2 hrs and assessed as upregulation of SOD4 mRNA expression measured by RT-qPCR analysis. It counts as functional, organism-based. Conditions: Candidozyma auris.
Assay [7] has as its system [Candida] auris. The experiment in a line: Antifungal activity against Candida auris MRL6057 assessed as dead cells at 0.98 ug/ml. It counts as functional, Candidozyma auris. The note with it: dose 0.98 µg/ml.
Assay [8] concerns [Candida] auris. The assay can be described thus: Antifungal activity against Candida auris MRL6057. It counts as functional. The note with it: Candidozyma auris.
Assay [9] concerns Candida albicans. The experiment in a line: Antifungal activity against Candida albicans assessed as dead cells. It counts as functional.
Assay [10] relates to [Candida] auris. The assay can be described thus: Induction of oxidative stress in Candida auris MRL6057 incubated for 2 hrs assessed as decrease in GLR activity. It counts as functional, organism-based. Conditions: Candidozyma auris.
Assay [11] deals with [Candida] auris. The experiment in a line: Induction of oxidative stress in Candida auris MRL6057 incubated for 2 hrs and assessed as downregulation of GSHR mRNA expression measured by RT-qPCR analysis. It is filed as functional, organism-based. The note with it: Candidozyma auris.
Assay [12] has as its system [Candida] auris. The assay can be described thus: Induction of cell cycle arrest in Candida auris MRL6057 cells assessed as cell population at G0/G1 phase at 0.5xMIC measured by Muse cell analyzer. It is filed as functional, Candidozyma auris.
Assay [13] deals with [Candida] auris. The assay can be described thus: Induction of oxidative stress in Candida auris MRL6057 incubated for 2 hrs and assessed as upregulation of CATA mRNA expression measured by RT-qPCR analysis. Conditions: Candidozyma auris. It counts as functional, organism-based.
The test system of assay [14] is [Candida] auris. The experiment in a line: Induction of cell cycle arrest in Candida auris MRL6057 cells assessed as cell population at G2/M phase at 0.5xMIC measured by Muse cell analyzer. It counts as functional, Candidozyma auris.
Assay [15] deals with [Candida] auris. The assay can be described thus: Induction of cell cycle arrest in Candida auris MRL6057 cells assessed as cell population at G2/M phase at MIC measured by Muse cell analyzer. It counts as functional, Candidozyma auris.
Assay [16] concerns [Candida] auris. The experiment in a line: Induction of oxidative stress in Candida auris MRL6057 incubated for 2 hrs assessed as increase in CAT activity. It counts as functional, organism-based. Conditions: Candidozyma auris.
In assay [17] the test system is [Candida] auris. The experiment in a line: Antifungal activity against Candida auris MRL6057 assessed as dead cells at 0.49 ug/ml. It is filed as functional, Candidozyma auris. Conditions: dose 0.49 µg/ml.
For assay [18], the system named is [Candida] auris. The experiment in a line: Induction of oxidative stress in Candida auris MRL6057 incubated for 2 hrs assessed as decrease in GST activity. It counts as functional, organism-based. Conditions: Candidozyma auris.
Assay [19] concerns [Candida] auris. The experiment in a line: Induction of oxidative stress in Candida auris MRL6057 incubated for 2 hrs and assessed as upregulation of GPx3 mRNA expression measured by RT-qPCR analysis. It is filed as functional, organism-based. Conditions: Candidozyma auris.
Assay [20] relates to [Candida] auris. The assay can be described thus: Induction of oxidative stress in Candida auris MRL6057 incubated for 2 hrs assessed as increase in SOD activity. The note with it: Candidozyma auris. It is filed as functional, organism-based.
The subject of assay [21] is [Candida] auris. The assay can be described thus: Induction of cell cycle arrest in Candida auris MRL6057 cells assessed as cell population at S phase at 0.5xMIC measured by Muse cell analyzer. It is filed as functional, Candidozyma auris.
The test system of assay [22] is [Candida] auris. The assay can be described thus: Induction of oxidative stress in Candida auris MRL6057 incubated for 2 hrs and assessed as increase in LPO activity. It counts as functional, organism-based. The note with it: Candidozyma auris.
In assay [23] the test system is [Candida] auris. The experiment in a line: Antifungal activity against clinical strain Candida auris. It counts as functional. Conditions: Candidozyma auris.

Consider `O=C(Cn1nnc(/C=C/c2ccccc2)n1)N/N=C/c1ccc([N+](=O)[O-])cc1`, for which the Activity was 99.9% in [1]; 2.3% in [2]; 49.3% in [3]; 83.1% in [7]; 75% in assay [9]; 48.2% in assay [12]. Further, the Activity worked out at 7.2% in [14], 48.3% in assay [15], 69.2% in assay [17] and 44.5% in assay [21]. Moreover, the outcome in assay [4], in assay [5], in assay [6], in assay [10], in assay [11] and in [13] was Active. In addition, the result in assay [16], in assay [18], in [19], in assay [20] and in [22] was Active. Further, the MFC in assay [8] was 1.96 µg/mL (≈ 5.19 µM). Also, the minimum inhibitory concentration (MIC) in assay [8] was 0.98 µg/mL (≈ 2.6 µM).
`C[C@@H]1[C@H](O)[C@@H](C)/C=C/C=C/C=C/C=C/C=C/C=C/C=C/[C@H](O[C@@H]2O[C@H](C)[C@@H](O)[C@H](N)[C@@H]2O)C[C@@H]2O[C@](O)(C[C@@H](O)C[C@@H](O)[C@H](O)CC[C@@H](O)C[C@@H](O)CC(=O)O[C@H]1C)C[C@H](O)[C@H]2C(=O)O` [AMPHOTERICIN B] had a minimum inhibitory concentration (MIC) in [23] of at least 2 µg/mL. In [8], the minimum fungicidal concentration (MFC) was found to be 8 µg/mL (≈ 8.66 µM) and the minimal inhibitory concentration (MIC) was 4 µg/mL (≈ 4.33 µM).

The term MFC denotes the lowest tested concentration that kills the fungus rather than only halting it. Lower therefore signals greater fungicidal potency. By MIC is commonly meant the lowest concentration found to suppress growth. Higher therefore signals a need for much substance.
